Values after ≈ are worked out from the molar mass of the structure shown. Counter-ions that a name gives are not always drawn.
Legend:
[1] = cited from earlier work
[2] = In-vitro release from FocalSeal-L gel disks, flow-through dissolution tank; format: physicochemical; settings: FocalSeal-L with 1% dexamethasone and 1% amiodarone HCl; 2 mm gel disc
Source text: Method: […] The gel disks were then placed in a flow-through dissolution tank and gels were sampled over time. Residual drug was extracted from the gel disks with methanol and drug was quantitated by HPLC.

[3] = Modulus and pH of FOCALSEAL-L as a function of drug loading; settings: loaded into the FOCALSEAL-L formulation

time over which amiodarone HCl is released in-vitro [2] [days] | loading level that maintains acceptable pH and modulus values [3] | SMILES | aqueous solubility [1] [mg/mL]
 |  | C[C@@H]1C[C@H]2[C@@H]3CCC4=CC(=O)C=C[C@]4(C)[C@@]3(F)[C@@H](O)C[C@]2(C)[C@@]1(O)C(=O)CO [dexamethasone free base, dexamethasone] | 10 (≈ 25.5 mM)
11 to 12 | about 1.5% | CCCCc1oc2ccccc2c1C(=O)c1cc(I)c(OCCN(CC)CC)c(I)c1 [amiodarone, Amiodarone hydrochloride] | 

From patent publication US20060093673A1, “Controlled release of anti-arrhythmic agents” (priority 2003, published 2006)
